The results in this text go back to patent publication US10745414B2, “Crystal salt form of 2,2-dimethyl-6-((4-((3,4,5-trimethoxyphenyl)amino)-1,3,5-triazine-2-yl)amino)-2H-pyrido[3,2-b][1,4]oxazine-3(4H)-one for human use” (LIMITED “MOLECULAR TECHNOLOGIES”, priority 2016, dated 2020).

The term inhibition denotes the percentage by which the read-out fell short of the control. By IC50 is commonly meant the point on the concentration scale where inhibition reaches its midpoint.

The target of one experiment is Blk (Homo sapiens, UniProt P51451). The experiment can be described thus: human kinase enzymatic activity in vitro. The settings on record: 0.5 μmol/l. The format is biochemical.
Experiment [1] deals with chondrocytes from knee joint cartilage of young rats. The experiment can be described thus: IL-1β-induced hypertrophic changes in chondrocytes (aggrecan expression). The format is cell-based, rats (Sprague Dawley). The settings on record: induced hypertrophic changes in chondrocytes. On the procedure: The study was carried out following the method below: chondrocytes were isolated from a knee joint cartilage of young rats (aged 3 weeks, Sprague Dawley line). The isolated chondrocytes in a cultural medium (Dulbecco's modified Igla minimum essential medium/fetal calf serum (DMEM/FCS), 10%, 4-(2-hydroxyethyl)-1-piperazine ethanesulfonic acid (HEPES), 25 mM) was stored frozen at −80° C. The obtained chondrocytes were unfrozen a day before the experiment, inoculated into 12-well plates and cultured as a monolayer during 24 hours. After 24 hours of incubation IL-1β-induced activation of chondrocytes and treatment with the studied compounds was started and continued for 3 days.

The next experiment addresses Hck (Homo sapiens, UniProt P08631). The experiment can be described thus: human kinase enzymatic activity in vitro. The class given is biochemical. As to conditions: 0.5 μmol/l.
Another experiment deals with Fgr (Homo sapiens, UniProt P09769). The experiment can be described thus: human kinase enzymatic activity in vitro. The class given is biochemical. The settings on record: 0.5 μmol/l.
Experiment [2] concerns the target human recombinant tyrosine c-Src kinase (Homo sapiens, UniProt P12931). Description: human kinase enzymatic activity in vitro (33P-ATP, peptide substrate). The format is biochemical. On the procedure:
(§1) The Compound 1 effect on the human recombinant tyrosine c-Src kinase was measured as follows: a peptide substrate was dissolved in a reaction buffer ad 0.2 mg/ml concentration. A solution of recombinant c-Src kinase was added to 2 nM concentration and the studied compound to the required concentration (within the range of 1 nM to 10 μM) was added. A solution of ^33P-ATP was added to 10 μM concentration (final specific activity of the solution is 0.01 μCi). After 120 minutes of incubation, the reaction mixture was applied on ion-exchange paper, which was rinsed with a plenty of phosphoric acid. A reaction extent was determined based on radioactivity of the reaction products.

In the next experiment the test system is Src-kinase family. The experiment can be described thus: human kinase enzymatic activity in vitro. The format is biochemical. As to conditions: 0.5 μmol/l. On the procedure: as §1
A further experiment has as its target Yes (Homo sapiens, UniProt P07947). The experiment can be described thus: human kinase enzymatic activity in vitro. The class given is biochemical. As to conditions: 0.5 μmol/l.
The target in a further experiment is Frk (Homo sapiens, UniProt P42685). Description: human kinase enzymatic activity in vitro. The format is biochemical. The settings on record: 0.5 μmol/l.
In a further experiment the target is Lck (Homo sapiens, UniProt P06239). Description: human kinase enzymatic activity in vitro. The format is biochemical. As to conditions: 0.5 μmol/l.
Another experiment concerns the target Lyn (Homo sapiens, UniProt P07948). Description: human kinase enzymatic activity in vitro. As to conditions: 0.5 μmol/l. The format is biochemical.
The next experiment deals with Syk kinase (Homo sapiens, UniProt P43405). Description: human kinase enzymatic activity in vitro. The format is biochemical.
In another experiment the target is Fyn (Homo sapiens, UniProt P06241). Description: human kinase enzymatic activity in vitro. As to conditions: 0.5 μmol/l. The format is biochemical.
Chain of Fyn (P06241 whole entry): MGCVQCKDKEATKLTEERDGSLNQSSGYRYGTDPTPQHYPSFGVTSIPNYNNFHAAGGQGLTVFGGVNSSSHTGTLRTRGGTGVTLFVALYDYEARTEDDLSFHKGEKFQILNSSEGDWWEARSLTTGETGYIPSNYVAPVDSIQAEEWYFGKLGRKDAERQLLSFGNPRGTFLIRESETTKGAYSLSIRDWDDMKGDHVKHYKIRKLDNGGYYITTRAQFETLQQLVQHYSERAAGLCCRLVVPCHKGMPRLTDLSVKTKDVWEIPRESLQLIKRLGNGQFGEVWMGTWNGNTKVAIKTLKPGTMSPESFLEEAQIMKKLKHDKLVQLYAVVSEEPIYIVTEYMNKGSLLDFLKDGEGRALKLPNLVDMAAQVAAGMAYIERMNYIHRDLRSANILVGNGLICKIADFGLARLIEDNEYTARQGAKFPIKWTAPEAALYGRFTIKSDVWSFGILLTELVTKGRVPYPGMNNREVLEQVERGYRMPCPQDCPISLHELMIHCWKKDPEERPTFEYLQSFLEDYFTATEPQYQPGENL

Chain of human recombinant tyrosine c-Src kinase (P12931 whole entry): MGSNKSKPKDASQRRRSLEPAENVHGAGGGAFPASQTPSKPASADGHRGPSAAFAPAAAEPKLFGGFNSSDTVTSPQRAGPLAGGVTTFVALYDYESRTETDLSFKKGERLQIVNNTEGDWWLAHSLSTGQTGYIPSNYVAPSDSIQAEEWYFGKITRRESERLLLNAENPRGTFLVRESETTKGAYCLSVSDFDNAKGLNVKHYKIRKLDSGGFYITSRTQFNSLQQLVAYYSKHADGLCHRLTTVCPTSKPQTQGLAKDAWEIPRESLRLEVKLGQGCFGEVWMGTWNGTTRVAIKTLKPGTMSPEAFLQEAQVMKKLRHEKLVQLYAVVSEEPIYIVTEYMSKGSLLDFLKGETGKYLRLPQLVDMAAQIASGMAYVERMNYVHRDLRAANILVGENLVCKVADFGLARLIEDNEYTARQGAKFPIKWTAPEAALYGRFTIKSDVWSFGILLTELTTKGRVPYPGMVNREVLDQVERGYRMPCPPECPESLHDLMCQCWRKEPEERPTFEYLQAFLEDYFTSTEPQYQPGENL
Chain of Blk (P51451 whole entry): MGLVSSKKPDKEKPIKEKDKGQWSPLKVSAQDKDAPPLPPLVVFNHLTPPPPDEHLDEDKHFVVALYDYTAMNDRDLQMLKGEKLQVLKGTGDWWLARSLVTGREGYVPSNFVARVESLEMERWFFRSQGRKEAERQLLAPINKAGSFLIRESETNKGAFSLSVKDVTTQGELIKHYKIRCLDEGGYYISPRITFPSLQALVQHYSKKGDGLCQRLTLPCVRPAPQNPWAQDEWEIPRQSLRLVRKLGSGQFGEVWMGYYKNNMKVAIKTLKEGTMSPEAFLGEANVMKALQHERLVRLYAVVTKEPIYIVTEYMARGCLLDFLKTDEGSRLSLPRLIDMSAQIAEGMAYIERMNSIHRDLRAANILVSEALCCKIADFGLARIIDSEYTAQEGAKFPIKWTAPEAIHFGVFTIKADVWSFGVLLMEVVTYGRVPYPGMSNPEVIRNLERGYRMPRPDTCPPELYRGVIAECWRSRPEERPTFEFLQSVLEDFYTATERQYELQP
Chain of Yes (P07947 whole entry): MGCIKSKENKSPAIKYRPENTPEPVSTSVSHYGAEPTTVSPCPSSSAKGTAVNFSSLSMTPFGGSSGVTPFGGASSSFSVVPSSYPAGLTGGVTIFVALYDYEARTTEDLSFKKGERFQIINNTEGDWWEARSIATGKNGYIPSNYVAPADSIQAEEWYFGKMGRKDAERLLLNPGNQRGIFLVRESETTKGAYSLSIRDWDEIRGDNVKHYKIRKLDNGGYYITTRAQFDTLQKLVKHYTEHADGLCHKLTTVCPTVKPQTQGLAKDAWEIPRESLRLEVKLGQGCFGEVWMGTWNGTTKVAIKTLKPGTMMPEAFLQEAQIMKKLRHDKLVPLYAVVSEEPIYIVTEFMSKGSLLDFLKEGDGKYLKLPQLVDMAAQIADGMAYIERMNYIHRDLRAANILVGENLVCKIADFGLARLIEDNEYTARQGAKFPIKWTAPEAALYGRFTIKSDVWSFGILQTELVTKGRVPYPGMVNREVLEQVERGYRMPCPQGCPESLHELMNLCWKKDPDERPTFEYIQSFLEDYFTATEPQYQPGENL
Chain of Lyn (P07948 whole entry): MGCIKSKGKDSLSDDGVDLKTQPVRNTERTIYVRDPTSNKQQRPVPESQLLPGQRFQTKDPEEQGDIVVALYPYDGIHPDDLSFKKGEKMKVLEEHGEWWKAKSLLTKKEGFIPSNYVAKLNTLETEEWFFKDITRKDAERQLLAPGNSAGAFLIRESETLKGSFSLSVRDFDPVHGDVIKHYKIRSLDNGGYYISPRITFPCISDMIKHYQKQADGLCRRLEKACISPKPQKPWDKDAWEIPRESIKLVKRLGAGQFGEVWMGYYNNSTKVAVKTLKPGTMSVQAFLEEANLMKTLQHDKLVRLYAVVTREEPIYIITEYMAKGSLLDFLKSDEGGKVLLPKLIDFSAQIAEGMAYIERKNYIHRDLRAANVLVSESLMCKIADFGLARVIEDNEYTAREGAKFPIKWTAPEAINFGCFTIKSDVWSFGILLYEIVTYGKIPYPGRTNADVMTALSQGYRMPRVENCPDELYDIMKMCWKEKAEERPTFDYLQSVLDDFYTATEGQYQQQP
Chain of Lck (P06239 whole entry): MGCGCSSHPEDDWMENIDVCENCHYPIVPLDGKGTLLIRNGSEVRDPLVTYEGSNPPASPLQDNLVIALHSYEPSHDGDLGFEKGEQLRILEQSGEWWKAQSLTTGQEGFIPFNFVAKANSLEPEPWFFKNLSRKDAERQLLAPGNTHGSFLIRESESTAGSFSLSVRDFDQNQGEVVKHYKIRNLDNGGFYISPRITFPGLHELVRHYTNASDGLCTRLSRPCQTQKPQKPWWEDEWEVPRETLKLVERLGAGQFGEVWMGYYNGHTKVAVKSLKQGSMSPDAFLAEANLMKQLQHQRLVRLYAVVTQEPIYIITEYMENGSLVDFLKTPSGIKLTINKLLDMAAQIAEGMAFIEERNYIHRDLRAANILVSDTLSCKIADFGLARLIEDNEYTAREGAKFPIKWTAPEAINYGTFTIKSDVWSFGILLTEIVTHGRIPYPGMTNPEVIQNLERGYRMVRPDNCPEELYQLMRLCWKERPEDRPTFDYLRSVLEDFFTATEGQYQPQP
Chain of Fgr (P09769 whole entry): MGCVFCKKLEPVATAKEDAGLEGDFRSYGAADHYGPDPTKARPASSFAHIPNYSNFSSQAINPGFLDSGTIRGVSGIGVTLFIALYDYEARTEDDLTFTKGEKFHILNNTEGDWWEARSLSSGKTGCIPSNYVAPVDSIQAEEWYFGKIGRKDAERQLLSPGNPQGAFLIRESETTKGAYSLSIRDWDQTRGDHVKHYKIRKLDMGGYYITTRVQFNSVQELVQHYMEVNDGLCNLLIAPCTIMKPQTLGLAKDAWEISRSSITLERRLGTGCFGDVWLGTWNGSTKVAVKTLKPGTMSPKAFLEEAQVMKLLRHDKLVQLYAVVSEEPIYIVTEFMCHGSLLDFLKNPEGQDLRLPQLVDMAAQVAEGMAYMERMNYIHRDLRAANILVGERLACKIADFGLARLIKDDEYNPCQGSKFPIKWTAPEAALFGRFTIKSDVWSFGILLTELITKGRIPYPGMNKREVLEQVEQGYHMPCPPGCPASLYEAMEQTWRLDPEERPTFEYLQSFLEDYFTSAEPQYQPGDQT
Chain of Hck (P08631 whole entry): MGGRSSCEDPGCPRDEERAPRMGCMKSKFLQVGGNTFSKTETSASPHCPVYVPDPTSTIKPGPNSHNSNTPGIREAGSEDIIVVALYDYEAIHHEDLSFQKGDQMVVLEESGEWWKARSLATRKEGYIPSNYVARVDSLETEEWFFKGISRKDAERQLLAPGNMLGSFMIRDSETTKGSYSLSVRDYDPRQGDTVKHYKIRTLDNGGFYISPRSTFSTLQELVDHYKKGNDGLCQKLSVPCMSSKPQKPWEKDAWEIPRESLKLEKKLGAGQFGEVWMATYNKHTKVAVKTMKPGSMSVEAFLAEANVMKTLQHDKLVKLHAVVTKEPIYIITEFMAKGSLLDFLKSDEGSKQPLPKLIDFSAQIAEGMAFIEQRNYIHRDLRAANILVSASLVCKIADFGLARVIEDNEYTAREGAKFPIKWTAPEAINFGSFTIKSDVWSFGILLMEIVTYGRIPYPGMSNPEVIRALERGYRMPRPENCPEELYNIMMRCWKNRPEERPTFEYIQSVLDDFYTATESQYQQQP
Chain of Frk (P42685 whole entry): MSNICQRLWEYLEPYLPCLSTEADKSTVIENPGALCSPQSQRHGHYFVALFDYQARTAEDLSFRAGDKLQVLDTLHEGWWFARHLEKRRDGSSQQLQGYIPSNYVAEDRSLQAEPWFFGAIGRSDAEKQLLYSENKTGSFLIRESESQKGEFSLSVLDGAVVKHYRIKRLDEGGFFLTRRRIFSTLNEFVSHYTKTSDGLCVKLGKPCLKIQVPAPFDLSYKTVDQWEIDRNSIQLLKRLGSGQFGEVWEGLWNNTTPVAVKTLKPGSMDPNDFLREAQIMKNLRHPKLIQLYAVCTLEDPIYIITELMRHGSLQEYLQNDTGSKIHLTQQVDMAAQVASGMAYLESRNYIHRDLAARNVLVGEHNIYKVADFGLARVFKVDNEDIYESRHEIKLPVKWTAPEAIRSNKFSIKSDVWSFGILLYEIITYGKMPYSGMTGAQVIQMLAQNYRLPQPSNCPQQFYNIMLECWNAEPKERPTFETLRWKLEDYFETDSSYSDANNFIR

Consider `COc1cc(Nc2ncnc(Nc3ccc4c(n3)NC(=O)C(C)(C)O4)n2)cc(OC)c1OC.Cc1ccc(S(=O)(=O)O)cc1` [salt of 4-methylbenzenesulfonic acid and 2,2-dimethyl-6-((4-((3,4,5-trimethoxyphenyl)amino)-1,3,5-triazine-2-yl)amino)-2H-pyrido[3,2-b][1,4]oxazine-3(4H)-one base], for which the inhibition at 0.5 µM (at Blk; at Hck; against Fgr; in [2] (0.5 μmol/l); at Yes; at Frk) was above 50% each time. Further, the inhibition at 0.5 µM at Lck, against Lyn, against Syk kinase (0.5 μmol/l) and on Fyn was above 50% each time. The remaining activity at 0.5 µM came out at 20% at Blk (read-out: residual activity); 25% on Hck (read-out: residual activity); 23% at Fgr (read-out: residual activity); 6% in [2] (0.5 μmol/l, read-out: residual activity); 12% on Yes (read-out: residual activity); 12% on Lck (read-out: residual activity). The remaining activity at 0.5 µM on Lyn (read-out: residual activity) amounted to 13%; at Fyn (read-out: residual activity), 25%. Besides, in experiment [1], the “increase of aggrecan production” value is “more than four-time increase”. Moreover, the values for the IC50 (in experiment [2]; on Syk kinase) were 14 nM and 40 nM, respectively. Moreover, the “residual Src-kinase family activity” value with Src-kinase family is recorded as ≤ 25 % of control values.
